The record followed here is US10568866B1, “Composition and its use for increasing innate immune health” (priority 2018, dated 2020).

Common to all, as to assay type: cell-based
Data set [1] deals with IL-6. The data set can be described thus: Pro-inflammatory IL-6 release by LPS stimulated RAW264.7 macrophages (ELISA). The following applies: for comparative effectiveness in decreasing IL-6 secretion (in words): 5-20 μg/ml individually, 75 μg/ml mixture, LPS stimulated, FIG. 3. As for the experimental part:
The pro-inflammatory IL-6 release by RAW264.7 macrophages was assessed using the IL-6 Quantikine ELISA assay kit (R&D, Minneapolis, Minn.) according to the manufacturer's protocol. Briefly, 2×10^6 of cells were plated in 6-well plates and allowed to settle for 2-4 h, followed by incubation with different micronutrients and plant extracts (5-20 μg/ml) 24 h at 37° C. in 5% CO2 atmosphere. After the incubation period, cells were stimulated with LPS (10 ng/ml) for additional 24 h and all supernatants were collected and subjected to ELISA assay according to manufacturer's protocol. As a positive control, LPS-stimulated cells without treatment were used. All experiments were done in triplicate.
The effect of naturally-derived agents and their mixture on release of pro-inflammatory IL-6 by RAW264.7 macrophage cell line. Macrophages were pre-incubated with different micronutrients and plant extracts (5-20 μg/ml) individually and in a mixture followed by their stimulation with Lipopolysaccharide (LPS). Each column represents the mean±standard deviation (n=4).
Background: ELISA stands for enzyme-linked immunosorbent assay.

For data set [2], the system named is RAW264.7 macrophages. The data set can be described thus: In vitro phagocytic assay (nitroblue tetrazolium (NBT) reduction test), RAW264.7 macrophages. Conditions: 5-20 μg/ml individually, 75 μg/ml mixture, 24 h, FIG. 1A.
Experimental: RAW264.7 macrophages (5×10^6 cells/well of a 96-well plate) were cultured with different micronutrients and plant extracts (5-20 μg/ml) for 24 h at 37° C. Thereafter, 20 μl C. albicans or S. mutans (5×10^7 cells/ml in PBS) suspension, and 20 μl nitroblue tetrazolium (1.5 mg/ml of NBT in PBS) were added to each well. Wells that received PBS+DMSO were used as control. Next, cells were incubated for 3 h at 37° C., the supernatant was removed, and the adherent macrophages were rinsed with RPMI 1640. The cells were air dried before 80 μl of 2M KOH and 100 μl DMSO were added to each well. The absorbance was measured at 570 nm using the microplate reader. Percentage of NBT reduction (reflecting phagocytic activity) was calculated as following equation: Phagocytic Index=(ODsample−ODcontrol)/ODcontrol.
The assay used nitroblue tetrazolium (NBT) reduction test after treatment with different individual micronutrients and plant extracts (5-20 μg/ml) and their combination for 24 h at 37° C. PI and phagocytosis was tested using C. albicans and S. mutants. Values shown are mean±standard deviation (n=4).
Data set [3] deals with YAC-1 cells. The data set can be described thus: Cytotoxicity assay of natural killer (NK) cells toward target YAC-1 cells (MTT). Conditions: individual compounds 5-20 μg/ml, 24 h, FIG. 2. The protocol:
Cytotoxicity Assay of Natural Killer (NK) Cells were performed using splenic natural killer (as the effector cells) activity assay was carried out according as described by Yi et al. Carbohydr. Polym. 2012, 87:636-643. The splenocytes/splenic NK cells were plated into 96-well plates at a density of 1×10^7 cells/ml per well in a 50 μl volume, and stimulated with different micronutrients and plant extracts (5-20 μg/ml) for 24 h at 37° C. Then, YAC-1 cells (1×10^6 cells/ml) were added into all experimental wells (group) and complete medium only was placed in the other wells as the effector control. At the same time, complete medium (100 μl), containing only YAC-1 cells (1×10^6 cells/ml), was added into empty wells as the target control. […] The absorbance was measured at 570 nm using a microplate reader. Cytotoxicity of NK cell was expressed as Cytotoxic Index (percent lysis of target cells): CI=[ODT−(ODexp.−ODE)]/ODT×100], where ODT represents OD value of the target control, whereas ODexp. and ODE represent OD value of the experimental group and effector control, respectively.
Cytotoxicity of NK cells toward target YAC-1 cells in the presence of different micronutrients and plant extracts (5-20 μg/ml) used individually and in a combination for 24 h at 37° C. Cytotoxicity of NK cells was assessed by the MTT assay and expressed as the mean±standard deviation (n=4).

As for `O=C(O)CCCCC1CCSS1` (stereo not drawn) [Alpha lipoic acid], the “comparative effectiveness in decreasing IL-6 secretion (in words)” value in data set [1] was “best natural compounds”. On to `O=C1O[C@H]([C@@H](O)CO)C(O)=C1O` [Vitamin C], for which the “comparative effectiveness in stimulating phagocytic activity of RAW264.7 macrophages (in words)” value in data set [2] is “most effective individual agents”. In data set [1], the “comparative effectiveness in decreasing IL-6 secretion (in words)” value is listed as “best natural compounds”. As for Fucoidan, in data set [3], the “comparative effectiveness on NK cell cytotoxicity (in words)” value is “two most effective individual compounds”. Take Lipopolysaccharide [LPS]: in data set [1] (LPS 10 ng/ml, 24 h, no treatment (positive control)), the “stimulation of IL-6 secretion by exposure of RAW264.7 macrophages to LPS” value is given as “over 300%”.
